Source: patent US20170119776A1, “CHIRAL 2,5-DISUBSTITUTED CYCLOPENTANECARBOXYLIC ACID DERIVATIVES AND USE THEREOF” (BAYER PHARMA AKTIENGESELLSCHAFT, priority 2014, published 2017)

Tests used:
Type in all cases: biochemical
MMP-8 of the mouse = molecular target: T1, MMP-8 of the mouse (Mus musculus, UniProt O70138); assay: In vitro MMP-8 inhibition test of the mouse
T1 construct: purchased R&D Systems 2904-MP
Source text: (§1) The activity strength of the compounds according to the invention towards other MMPs (and therefore their selectivity) is likewise ascertained in in vitro inhibition tests. The MMP-mediated amidolytic cleavage of a suitable peptide substrate also leads here to a fluorescent light increase. The signal intensity of the fluorescent light is directly proportional to the enzyme activity. The active concentration of a test compound at which half of the enzyme is inhibited (50% signal intensity of the fluorescent light) is given as IC50 value.
Recombinant MMP-8 of the mouse (R&D Systems, 2904-MP) is chemically activated in accordance with the manufacturer's instructions using APMA. 1 μl of the test compound to be analysed (as a solution in DMSO, suitable concentrations e.g. 1 nM to 30 μM) is pipetted into 24 μl of activated enzyme (final concentration e.g. 2 nM) in reaction buffer (50 mM Tris/HCl pH 7.5, 10 mM CaCl2, 150 mM NaCl, 0.05% Brij®-35) in a white 384-hole microtiter plate (MTP). The enzymatic reaction is started by adding the intramolecularly quenched substrate Mca-Lys-Pro-Leu-Gly-Leu-Dpa(Dnp)-Ala-Arg-NH2 (final concentration e.g. 5 μM; R&D Systems, ES-010), such that a total test volume of 50 μl results. The progress of the MMP-8 reaction is measured by measuring the fluorescence intensity (excitation 320 nm, emission 410 nm) over a suitable period (e.g. over 120 min at a temperature of 32° C.).
(§2) Tables 3A and 3B below give the IC50 values from these tests for the inhibition of rodent MMPs for representative embodiment examples of the present invention and also for two structurally related comparison compounds from the prior art (as racemate and separated enantiomer)→(in part as average values from several independent individual determinations and rounded to two significant places). The IC50 values were determined for racemates and enantiomers from differently generated DMSO stock solutions. Whereas an automatically created DMSO stock solution from the internal substance logistics was used for racemates by means of a standard method, in the case of enantiomers, in each case a freshly produced, manually prepared DMSO stock solution was used for a more precise direct comparison of the enantiomers with one another.

MMP-13 = molecular target: T2, MMP-13 (Homo sapiens, UniProt P45452); assay: In vitro MMP-13 inhibition test
T2 construct: purchased R&D Systems 511-MP
Source text: as §1
(§3) Recombinant MMP-13 (R&D Systems, 511-MP) is chemically activated in accordance with the manufacturer's instructions using APMA. 1 μl of the test compound to be analysed (as a solution in DMSO, suitable concentrations e.g. 1 nM to 30 μM) is pipette into 24 μl of activated enzyme (final concentration e.g. 0.1 nM) in reaction buffer (50 mM Tris/HCl pH 7.5, 10 mM CaCl2, 150 mM NaCl, 0.05% Brij®-35) in a white 384-hole microtiter plate (MTP). The enzymatic reaction is started by adding the intramolecularly quenched substrate Mca-Pro-Leu-Gly-Leu-Dpa(Dnp)-Ala-Arg-NH2 (final concentration e.g. 10 μM; R&D Systems, ES-001), such that a total test volume of 50 μl results. The progress of the MMP-13 reaction is measured by measuring the fluorescence intensity (excitation 320 nm, emission 410 nm) over a suitable period (e.g. over 120 min at a temperature of 32° C.).
(§4) The IC50 values were determined for racemates and enantiomers from differently generated DMSO stock solutions. Whereas an automatically produced DMSO stock solution from the internal substance logistics was used for racemates by means of a standard method, in the case of enantiomers a freshly produced, manually prepared DMSO stock solution was used in each case for a more precise direct comparison of the enantiomers with one another.

MMP-10 = molecular target: T3, MMP-10 (Homo sapiens, UniProt P09238); assay: In vitro MMP-10 inhibition test
T3 construct: purchased R&D Systems 910-MP
T3 sequence (P09238 99-476): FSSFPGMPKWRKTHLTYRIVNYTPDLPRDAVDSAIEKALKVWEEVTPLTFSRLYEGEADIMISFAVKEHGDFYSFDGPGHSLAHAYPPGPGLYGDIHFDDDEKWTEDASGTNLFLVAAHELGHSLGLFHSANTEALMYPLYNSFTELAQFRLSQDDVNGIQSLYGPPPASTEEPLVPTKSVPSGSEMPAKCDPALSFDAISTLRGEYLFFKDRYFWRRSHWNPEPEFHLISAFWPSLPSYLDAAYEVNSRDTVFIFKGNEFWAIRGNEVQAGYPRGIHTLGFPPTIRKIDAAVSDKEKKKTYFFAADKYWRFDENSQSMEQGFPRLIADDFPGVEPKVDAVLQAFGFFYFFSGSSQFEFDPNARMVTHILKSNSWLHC
Source text: as §1
as §3, with “MMP-10” for “MMP-13”, “910-MP)” for “511-MP)”, “2” for “0.1”, “Mca-Arg-Pro-Lys-Pro-Val-Glu-Nval-Trp-Arg-Lys(Dnp)-NH2” for “Mca-Pro-Leu-Gly-Leu-Dpa(Dnp)-Ala-Arg-NH2”, “ES-002),” for “ES-001),”
as §4

MMP-2 of the rat = assay: In vitro MMP-2 inhibition test of the rat
Source text: as §1
as §3, with “Recombinant MMP-2 of the rat” for “Recombinant MMP-13”, “Systems, 924-MP)” for “Systems, 511-MP)”, “APMA. […]” for “APMA. 1”, “is pipetted” for “is pipette”, “e.g. 1” for “e.g. 0.1”, “the MMP-2” for “the MMP-13”
as §2

T1 sequence (O70138 101-465): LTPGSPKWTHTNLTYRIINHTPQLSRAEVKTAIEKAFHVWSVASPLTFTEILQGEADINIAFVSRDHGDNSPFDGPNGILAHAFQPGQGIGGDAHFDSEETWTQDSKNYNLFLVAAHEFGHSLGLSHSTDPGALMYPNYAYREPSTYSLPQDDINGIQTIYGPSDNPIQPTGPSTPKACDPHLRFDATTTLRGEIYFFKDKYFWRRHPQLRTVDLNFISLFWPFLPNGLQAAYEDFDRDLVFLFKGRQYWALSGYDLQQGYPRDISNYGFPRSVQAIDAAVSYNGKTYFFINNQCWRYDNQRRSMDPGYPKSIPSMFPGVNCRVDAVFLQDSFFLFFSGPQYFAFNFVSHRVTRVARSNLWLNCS

SMILES | IC50 (MMP-8 of the mouse) [nM] | IC50 (MMP-13) [nM] | IC50 (MMP-10) [nM] | IC50 (MMP-2 of the rat) [nM]
O=C(O)[C@H]1[C@H](Cn2nnc3ccccc3c2=O)CC[C@@H]1C(=O)c1ccc(-c2ccc(Cl)cc2)cc1 (racemic) [Comparative Example A-1, (1RS,2RS,5SR)-2-[(4′-chlorobiphenyl-4-yl)carbonyl]-5-[(4-oxo-1,2,3-benzotriazin-3(4H)-yl)methyl]cyclopentanecarboxylic acid (racemate)] | 1.1 | 1.8 | 4.6 | 1.3
CCCCCOc1ccc(C(=O)CC(CCn2nnc3ccccc3c2=O)C(=O)O)cc1 (racemic) [Comparative Example B-1, (+/−)-4-Oxo-2-[2-(4-oxo-1,2,3-benzotriazin-3(4H)-yl)ethyl]-4-[4-(pentyloxy)phenyl]butanoic acid (racemate)] | 2300 | 1800 | 5700 | 610
O=C(O)[C@H]1[C@H](Cn2nnc3ccccc3c2=O)CC[C@@H]1C(=O)c1ccc(OCc2ccccc2)cc1 (racemic) [Example 1, (+/−)-(1RS,2RS,5SR)-2-[4-(Benzyloxy)benzoyl]-5-[(4-oxo-1,2,3-benzotriazin-3(4H)-yl)methyl]cyclopentanecarboxylic acid (racemate)] | 71 | 30 | 21 | 33
CCCCCOc1ccc(C(=O)CC(CCn2nnc3ccccc3c2=O)C(=O)O)cc1 (single isomer, unassigned; enantiomer 1) [Comparative Example B-2, (+)-4-Oxo-2-[2-(4-oxo-1,2,3-benzotriazin-3(4H)-yl)ethyl]-4-[4-(pentyloxy)phenyl]butanoic acid (enantiomer 1)] | 1080 | 360 | 1900 | 145
O=C(O)[C@@H]1[C@@H](Cn2nnc3ccccc3c2=O)CC[C@H]1C(=O)c1ccc(-c2ccc(Cl)cc2)cc1 (single isomer, unassigned; enantiomer 2) [Comparative Example A-3, (1RS,2RS,5SR)-2-[(4′-Chlorobiphenyl-4-yl)carbonyl]-5-[(4-oxo-1,2,3-benzotriazin-3(4H)-yl)methyl]cyclopentanecarboxylic acid (enantiomer 2)] | < 0.61 | 0.82 | < 0.61 | < 0.61
O=C(O)[C@H]1[C@H](Cn2nnc3ccccc3c2=O)CC[C@@H]1C(=O)c1ccc(OCc2ccccc2)cc1 [Example 2, (+)-(1S,2S,5R)-2-[4-(Benzyloxy)benzoyl]-5-[(4-oxo-1,2,3-benzotriazin-3(4H)-yl)methyl]cyclopentanecarboxylic acid] | 34.5 | 14.5 | 17.5 | 16.5
